Experimental data published in patent publication US6552060B1, “Asymmetric disulfides and methods of using same” (Prolx Pharmaceuticals, Inc., priority 1997, dated 2003).
Where “and” joins values, the source holds several entries; their conditions need not be identical. Equal values may be shown once. Entries after “also recorded” stand apart in the source; their conditions may differ. Read-outs that look alike come from different tables or passages of the source. Marks after values point to notes of the source that are not given here. One block for each molecule: values may come before it.

How the values were obtained:
in vitro = conditions: mouse
[1] = tested on: EMT6 mouse mammary tumor cells; conditions: 48 h
TR/Trx = molecular target: T1, TR/Trx (Homo sapiens, UniProt Q16881); assay: Thioredoxin dependent reduction of insulin by human thioredoxin reductase and NADPH (IC50 TR/Trx, 96 well); type: biochemical
T1 sequence (Q16881 1-499 isoform Q16881-5): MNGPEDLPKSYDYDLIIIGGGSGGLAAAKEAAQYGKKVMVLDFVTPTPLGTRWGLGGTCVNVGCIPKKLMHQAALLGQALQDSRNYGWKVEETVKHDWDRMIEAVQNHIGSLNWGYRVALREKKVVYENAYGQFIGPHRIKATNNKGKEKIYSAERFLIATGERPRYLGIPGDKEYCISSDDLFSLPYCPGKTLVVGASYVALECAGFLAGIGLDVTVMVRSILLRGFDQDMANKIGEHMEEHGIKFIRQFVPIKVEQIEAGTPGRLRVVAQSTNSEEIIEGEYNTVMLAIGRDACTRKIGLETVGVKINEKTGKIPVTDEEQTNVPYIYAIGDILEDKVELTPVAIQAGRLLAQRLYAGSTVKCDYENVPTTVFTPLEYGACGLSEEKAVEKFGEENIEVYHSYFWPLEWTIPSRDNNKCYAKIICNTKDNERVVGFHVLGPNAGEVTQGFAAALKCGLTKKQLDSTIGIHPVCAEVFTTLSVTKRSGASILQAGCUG
Description: When referring to the particular system being analyzed IC50 is typically followed by an abbreviation referring to that system (i.e., IC50 TR/Trx for the above described thioredoxin redox system which is comprised of thioredoxin reductase and thioredoxin).
A second plate was used for the assessment of biological activity or as a biological screen. Aliquots of disulfides dissolved in DMSO, were be transferred into 96 well plates. The assay to assess their ability to inhibit thioredoxin reductase measures the thioredoxin dependent reduction of insulin by human thioredoxin reductase and NADPH. The effects of the disulfides on the reduction of Trx by TR were measured spectrophotometrically by following the reduction of NADPH at 339 nm with insulin as the final electron acceptor in a buffered mixture of TR, Trx, NADPH and insulin.

thioredoxin = molecular target: T2, thioredoxin (Homo sapiens, UniProt P10599); assay: Direct reaction between thioredoxin and disulfides, release of 2-mercaptoimidazole at 252 nm; type: biochemical; conditions: for initial rate for reaction between thioredoxin and disulfide: thioredoxin 2 μM, disulfide 200 μM, pH 7.4, room temperature
T2 construct: made in house; host or cells: E. coli
T2 sequence (P10599 1-105): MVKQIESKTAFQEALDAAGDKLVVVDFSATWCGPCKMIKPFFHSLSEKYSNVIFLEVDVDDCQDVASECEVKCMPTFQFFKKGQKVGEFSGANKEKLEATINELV
Description: The effects of the assymetric disulfides of Table I on the reduction of thioredoxin and C73S by thioredoxin reductase was measured spectrophotometrically by following the reduction of NADPH at 339 nm. […] In some studies the disulfides at 3.5 μM were preincubated for up to 24 hr at room temperature in air with 0.7 μM thioredoxin or C73S in 100 μM HEPES buffer, pH 7.6, and 5 mM EDTA, before measuring the reduction of the thioredoxin or C73S by thioredoxin reductase with 1 mg/ml bovine insulin as the final electron acceptor. The ability of the disulfides to act as substrates for glutathione reductase was measured by following the reduction of NADPH using an incubation mixture containing 0.15 μg/ml glutathione reductase, 140 μM NADPH, 100 mM HEPES buffer, pH 7.6, 5 mM EDTA and the disulfides at 500 μM. The ability of the disulfides to act as inhibitors of glutathione reductase was measured using oxidized glutathione, 50 μM, as the final electron acceptor. In both cases the reaction was initiated by the addition of NADPH. Thioredoxin or C32S/C35S, 2 μM, in 0.1 M sodium phosphate buffer, pH 7.4, was reacted with the disulfides at a concentration of 200 μM at room temperature. This direct reaction between thioredoxin and the disulfides was followed spectrophotometrically as the increase in absorbance at 252 nm due to release of 2-mercaptoimidazole. Initial reaction rates were measured in triplicate.
Due to the fact that the disulfides inhibited thioredoxin-dependent cell growth at concentrations below those required to inhibit thioredoxin reductase, a direct effect of the disulfides on thioredoxin was looked for. The initial reaction between the disulfides and thioredoxin was measured spectrophotometrically (FIGS. 2A and 2B). […] This is the order of reactivity which be predicted from the steric and electronic nature of the disulfides thioalkylating groups.

[2] = molecular target: T3, Human placental thioredoxin reductase (Homo sapiens, UniProt Q16881); assay: NADPH oxidation by thioredoxin reductase with the disulfide as substrate, or with thioredoxin and insulin as final electron acceptor and the disulfide as inhibitor; type: biochemical; conditions: for Type: behaviour towards thioredoxin reductase: substrate, inhibitor or non-reactive; for Km: disulfide as substrate for reduction by thioredoxin reductase, Lineweaver-Burk
T3 sequence (Q16881 1-499 isoform Q16881-5): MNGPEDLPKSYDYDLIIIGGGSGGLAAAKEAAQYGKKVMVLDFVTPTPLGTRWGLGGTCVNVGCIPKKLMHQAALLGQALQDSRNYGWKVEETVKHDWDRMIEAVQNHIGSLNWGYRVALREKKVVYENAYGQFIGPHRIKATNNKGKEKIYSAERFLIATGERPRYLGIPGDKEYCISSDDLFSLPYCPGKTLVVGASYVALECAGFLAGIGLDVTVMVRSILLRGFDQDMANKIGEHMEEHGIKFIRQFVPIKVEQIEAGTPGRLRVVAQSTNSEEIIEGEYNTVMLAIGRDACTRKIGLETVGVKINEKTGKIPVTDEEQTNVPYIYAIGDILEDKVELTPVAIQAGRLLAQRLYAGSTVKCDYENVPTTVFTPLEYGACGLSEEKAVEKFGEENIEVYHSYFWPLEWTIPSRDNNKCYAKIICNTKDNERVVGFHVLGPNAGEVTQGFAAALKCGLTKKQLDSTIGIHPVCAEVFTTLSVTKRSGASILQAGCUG
Description: The thioredoxin was stored at −20° C. with 5 mM dithiothreitol which was removed before use with a desalting column (PD10, Pharmacia, Uppsala, Sweden).
Asymmetrical 2-imidazolyl disulfides which were used as a basis for further development and identified below in Table 1. In Table I, NADPH oxidation by thioredoxin reductase was measured spectrophotometrically as described with either the disulfide as the electron acceptor (substrate) or with thioredoxin and insulin as the final electron acceptor and the disulfide as inhibitors. The reactions were initiated by the addition of NADPH. Km and Ki values were calculated from Lineweaver-Burk plots of the data.
The compounds of Table 1 were synthesized by a method described previously and recrystallized prior to use. Stock solutions of the disulfides were prepared at 10 mM in ethanol and diluted in aqueous media just prior to use. N-ethylmaleimide (NEM), diamide, and DTT were obtained from Sigma Chemical Co. (St. Louis, Mo.). All other chemicals used were of reagent grade. […]

[3] = tested on: MCF-7 breast cancer cells in scid mice; assay: Activity against MCF-7 breast cancer cells in scid mice; type: in vivo; conditions: for T/C %: tumor volume treated versus control at day 28; for tumor inhibition: MCF-7 tumor system
Description: This is shown below in Table II.

[4] = tested on: MCF-7 human breast cancer cells; assay: Thioredoxin and serum dependent growth of MCF-7 cells; type: cell-based; conditions: 48 hr
Description: MCF-7 human breast cancer cells were obtained from the American Tissue Type Collection (Rockville, Md.). Cultures were maintained in Dulbecco's Modified Eagles' medium (DMEM) containing 10% fetal bovine serum (fbs) at 37° C. and 6% CO2, and passaged at 75% confluence using 0.025% trypsin. The effect of the disulfides on cell proliferation was measured as previously described and incorporated herein by reference. Briefly, 10^5 cells were plated in a 35 mm culture dish in the above medium and, after attachment for 24 hr, their growth was arrested by changing to DMEM with 0.5% fbs for 48 hr. The medium was then replaced with DMEM containing 10% fbs or 1 μM thioredoxin, with or without the disulfides. The cell number was measured 2 days later following detachment with 0.025% trypsin using a hemocytometer.
The effects of the disulfides on the growth of human MCF-7 breast cancer cells is shown graphically in FIG. 1. […] The cells were growth arrested in medium with 0.5% serum for 48 hr at which time there were 0.2×10^6 cells. DMEM with 1 mM thioredoxin (open symbols) or 10% serum (filled symbols) was added and the increase in cell number over a 48 hr period was measured in the presence of various concentrations of the disulfides. Values are means±SEM. n=6.

HL60 cells = assay: Induction of apoptosis in HL60 cells; type: cell-based, human; conditions: within 8 h of exposure, same concentration
[5] = tested on: thioredoxin transfected MCF-7 cells; assay: Apoptosis in MCF-7 cells transfected with human thioredoxin cDNA; conditions: 30 μM, apoptosis measured 48 h later
human primary tumors = assay: Growth of human primary tumors in soft agarose; type: cell-based
[6] = tested on: MCF-7 breast cancer cells; conditions: read-out: EC50 for growth stimulation; cited from earlier work
[7] = Table 4, read-out: Disulfide inhibition of TR/Trx (IC50 TR/Trx) (converted)
[8] = MCF7, in the presence of 1 μM thioredoxin, read-out: IC50 thioredoxin dependent proliferation
[9] = MCF7, with 10% fetal bovine serum, read-out: IC50 serum dependent growth

IC50 at 48 h (in vitro): 42 µM
IC50 [1]: 25 µM
Molecule: CC(C)SSCc1ccccc1 [Compound E-19]

IC50 (TR/Trx; Table 3, read-out: IC50 TR/Trx (converted)): 95.7 µM
IC50 at 48 h (in vitro): > 180 µM
IC50 [1]: > 180 µM
Molecule: CCC(C)SSc1ncnc2[nH]cnc12 (stereo not shown) [Compound F-7]

Molecule: c1ccc(CSSc2ncc[nH]2)cc1 [DLK-36, benzyl 2-imidazolyl disulfide]
initial rate for reaction between thioredoxin and disulfide (thioredoxin): 1.3e-06 M/s
IC50 at 48 h (in vitro): 22 µM
Type [2]: competitive inhibitors; also recorded: inhibitor
Ki ([2]; competitive inhibitors of the reduction of thioredoxin by thioredoxin reductase): 31 µM
Toxicity dead/injected ([3]; 25 mg/kg/day i.p. for 14 days): 1/8
T/C % ([3]; 25 mg/kg/day i.p. for 14 days): 100.7%
Toxicity dead/injected ([3]; 40 mg/kg/day i.p. for 14 days): 0/6
T/C % ([3]; 40 mg/kg/day i.p. for 14 days): 23.7^c %
tumor inhibition [3]: 65%

Molecule: CCCCSSc1ncc[nH]1 [III-2, n-butyl 2-imidazolyl disulfide]
initial rate for reaction between thioredoxin and disulfide (thioredoxin): 7.3e-07 M/s
IC50 (TR/Trx; [7]): 117 µM
IC50 at 48 h (in vitro): 12 µM
IC50 [4, 8]: 0.2 µM
IC50 [4, 9]: 35 µM
apoptosis of HL60 cells (HL60 cells): stimulated to apoptose
Type [2]: substrate
Km [2]: 43 µM and 43.1 µM
Toxicity dead/injected ([3]; 6 mg/kg/day i.p. for 14 days): 0/8
T/C % ([3]; 6 mg/kg/day i.p. for 14 days): 48.9^c %
Toxicity dead/injected ([3]; 12 mg/kg/day i.p. for 14 days): 0/8
T/C % ([3]; 12 mg/kg/day i.p. for 14 days): 56.6^c %
Toxicity dead/injected ([3]; 18 mg/kg/day i.p. for 14 days): 1/8
T/C % ([3]; 18 mg/kg/day i.p. for 14 days): 100.2%

Molecule: CCC(C)SSc1ncc[nH]1 (stereo not shown) [IV-2, 1-methylpropyl 2-imidazolyl disulfide]
initial rate for reaction between thioredoxin and disulfide (thioredoxin): 2.8e-07 M/s
IC50 at 48 h (in vitro): 19 µM
apoptosis induced in thioredoxin transfected cells [5]: became resistant to apoptosis
IC50 [4, 8]: 1.2 µM
IC50 [4, 9]: 3.2 µM
apoptosis of HL60 cells (HL60 cells): stimulated to apoptose
Type [2]: competitive inhibitors; also recorded: inhibitor
T/C % ([3]; 5 mg/kg/day i.p. for 14 days): 56.7%
T/C % ([3]; 10 mg/kg/day i.p. for 14 days): 45.9^c %
T/C % ([3]; 15 mg/kg/day i.p. for 14 days): 2.3^c %
tumor inhibition [3]: 98%
growth of human primary tumors in soft agarose (human primary tumors): inhibited

rate of thiol/disulfide exchange reaction with thioredoxin relative to III-2 (thioredoxin): three logs slower
initial rate for reaction between thioredoxin and disulfide (thioredoxin; unit not given, in M/s): 3.0×10^−9
Type [2]: non-reactive
Molecule: CC(C)(C)SSc1ncc[nH]1 [IX-2, t-butyl 2-imidazolyl disulfide]
apoptosis of HL60 cells (HL60 cells): does not cause apoptosis

Molecule: CCSSc1ncc[nH]1 [VI-2, ethyl 2-imidazolyl disulfide]
IC50 (TR/Trx; [7]): 25 µM
IC50 at 48 h (in vitro): 8 µM
Type [2]: substrate
Km [2]: 48 µM and 48.1 µM
Toxicity dead/injected ([3]; 4 mg/kg/day i.p. for 14 days): 1/8
T/C % ([3]; 4 mg/kg/day i.p. for 14 days): 83.0%
Toxicity dead/injected ([3]; 6 mg/kg/day i.p. for 14 days): 0/8
T/C % ([3]; 6 mg/kg/day i.p. for 14 days): 65.8%
Toxicity dead/injected ([3]; 12 mg/kg/day i.p. for 14 days): 4/8
T/C % ([3]; 12 mg/kg/day i.p. for 14 days): 64.6%

B1: thioredoxin: low molecular weight redox protein; human recombinant thioredoxin stimulates proliferation of cancer cells (protein, UniProt P10599 2-105, looked up)
Thioredoxin: VKQIESKTAFQEALDAAGDKLVVVDFSATWCGPCKMIKPFFHSLSEKYSNVIFLEVDVDDCQDVASECEVKCMPTFQFFKKGQKVGEFSGANKEKLEATINELV
EC50 [6]: 0.35 µM
